The subject of one data set is B16F10 melanoma cells. In words: Proliferation inhibitory activity on solid tumor cells, B16F10. Type of data set: cell-based. Conditions: Mus musculus, B16-F10; 72 hours. The procedure:
(§1) Used in the test were MCF-7 cells which were established from human breast cancer and were cultured routinely under the conditions of 37° C. and 5% CO2, in MEM medium supplemented with 10% fetal calf serum, 25 mM of HEPES and 0.1 mg/ml kanamycin. The MCF-7 cells in a logarithmic growth phase were treated with trypsin/EDTA to prepare single cell suspension adjusted to 4.0×10^4 cells/ml in MEM medium (supplemented with 10% fetal calf serum, 25 mM of HEPES and 0.1 mg/ml kanamycin). Test compounds were dissolved in DMSO and diluted with RPMI 1640 medium (supplemented with 10% fetal calf serum, 25 mM of HEPES and 0.1 mg/ml kanamycin) to a concentration of […] to 2.0×10^−9M.
(§2) The cell suspension was filled in a 96-wells microplate at a rate of 0.1 ml per well and was cultured for 24 hours so as to make the cells to adhere to the microplate. Then, it was added with 0.1 ml of the sample solution and cultured at 37° C. for 72 hours in 5% CO2.
(§3) 50% Growth inhibition concentrations (GI50 μM) were calculated from growth inhibitions at various sample concentrations.
(§4) In the foregoing, when the cells other than MCF-7 are used, instead of adding 10% fetal bovine serum, the following media were used, and the following single cell suspensions were prepared. • PC-3 prostate cancer cells: 10% fetal bovine serum in F12K medium, single cell suspension of 2×10^4 cells; • A549 lung cancer cells: 10% fetal bovine serum in DMEM medium, single cell suspension of 1.5×10^4 cells; • WiDr colon cancer cells: 10% fetal bovine serum in MEM medium, single cell suspension of 3×10^4 cells; • B16F10 melanoma cells: 10% fetal bovine serum in RPMI 1640 medium, single cell suspension of 1×10^4 cells;

Another data set concerns MCF-7 cells. In words: Proliferation inhibitory activity on solid tumor cells, MCF-7. The format is cell-based. Conditions: Homo sapiens, MCF7; 72 hours. The procedure:
as §1, §2, §3

The next data set has as its system WiDr colon cancer cells. As to the kind of experiment: Proliferation inhibitory activity on solid tumor cells, WiDr. The format is cell-based. Conditions: Homo sapiens, 72 hours. The procedure:
as §1, §2, §3, §4

In data set [1] the test system is PC-3 prostate cancer cells. In words: Proliferation inhibitory activity on solid tumor cells, PC-3. The format is cell-based. The conditions noted are these: 72 hours. Here is the method:
as §1, §2, §3, §4

A further data set deals with A549 lung cancer cells. In words: Proliferation inhibitory activity on solid tumor cells, A549. The format is cell-based. Conditions: Homo sapiens, 72 hours. The procedure: as §1, §2, §3, §4
Another data set deals with mouse spleen cells. As to the kind of experiment: Proliferation inhibition assay for mouse spleen cells. Type of data set: cell-based. Conditions: 72 h, 3 days, Alamar Blue. Here is the method:
Spleen cells (2×10^6 cells/mL) prepared from C57BL/6N female mice (8 weeks old, purchased from Charles River Laboratories Japan Inc.) were suspended in RPMI 1640 medium (containing 10% fetal bovine serum, 10 mM HEPES, 1 mM pyruvic acid, 4.5 g/L glucose, 100 units/mL penicillin, and 0.1 mg/mL streptomycin), and seeded in wells of a 96 well plate at 0.225 mL per well. Serial dilutions of test substances were added to respective wells, and then concanavalin A (Con A, 3 μg/mL), lipopolysaccharide (LPS, 100 μg/mL), or an anti-mouse IgM antibody (100 μg/mL) were added. Thereafter, they were incubated under conditions of carbon dioxide 5% at a temperature 37° C. for 3 days. Next, Alamar Blue solution was added at 50 μL per 150 μL, and after having cultured for one day, the fluorescence intensity at 590 nm using an excitation wavelength of 530 nm was determined by Cytoflour 4000 (Applied Biosystems).

In data set [2] the test system is Rabbit synoviocytes HIG-82. As to the kind of experiment: Inhibition assay for proliferation of rabbit synoviocyte. The format is cell-based. The conditions noted are these: Oryctolagus cuniculus, 72 h; HIG-82, 3 days, Alamar Blue. The procedure:
Rabbit synoviocytes HIG-82 suspended in HAM medium (containing 10% fetal bovine serum, 25 mM HEPES, and 0.1 mg/mL kanamycin) (with 4×10^4 cells/mL) were seeded in wells of a 96 well plate at 0.135 mL per well. Then, 15 μL of each of serial dilutions of test substances was added to a respective well, and incubated under conditions of carbon dioxide 5% at a temperature 37° C. Alamar Blue solution was added at 50 μL per well on day 0 and day 3, and incubated for one day, and thereafter fluorescence intensity at 590 nm using an excitation wavelength of 530 nm was determined by Cytoflour 4000 (Applied Biosystems).

The next data set relates to Daudi cells. As to the kind of experiment: Proliferation inhibitory activity on hematologic neoplasm cells, Daudi. The format is cell-based. The conditions noted are these: Homo sapiens, Daudi, 72 h; 3 days, Alamar Blue. Here is the method:
(§5) Daudi cells (5×10^5 cells/mL), Jurkat cells (5×10^5 cells/mL), THP-1 cells (5×10^5 cells/mL), U 937 cells (5×10^5 cells/mL), and HL 60 cells (5×10^5 cells/mL) suspended in RPMI 1640 medium (containing 10% fetal bovine serum, 10 mM HEPES, 1 mM pyruvic acid, 4.5 g/L glucose, 100 units/mL penicillin, and 0.1 mg/mL streptomycin) were seeded in 96 well plates at a capacity of 0.135 mL per well. Serial dilutions of test substances were added to respective wells at 15 μL/well, and incubated under conditions of carbon dioxide 5% at 37° C. for 3 days. Thereafter, Alamar Blue solution was added at 50 μL, and after incubation for one day, the fluorescence intensity at 590 nm using an excitation wavelength of 530 nm was determined by Cytoflour 4000 (Applied Biosystems).

The next data set relates to Jurkat cells. As to the kind of experiment: Proliferation inhibitory activity on hematologic neoplasm cells, Jurkat. Type of data set: cell-based. The conditions noted are these: Homo sapiens, Jurkat, 72 h; 3 days, Alamar Blue. The procedure: as §5
In another data set the test system is THP-1 cells. In words: Proliferation inhibitory activity on hematologic neoplasm cells, THP-1. Type of data set: cell-based. The conditions noted are these: Homo sapiens, THP-1, 72 h; 3 days, Alamar Blue. The procedure: as §5
[3] abbreviates: LPS 100 μg/mL, read-out: Inhibition of LPS response.
[4] abbreviates: concanavalin A 3 μg/mL, read-out: Inhibition of Con A response.

The structures appear in SMILES notation. Read-outs that look alike come from different tables or passages of the source.

Take `O=C(Cc1ccccc1)N1CCN(c2nc(N3CCOCC3)nc(-n3c(C(F)F)nc4ccccc43)n2)CC1` [Compound 29, 2-(2-Difluoromethylbenzimidazol-1-yl)-4-(4-benzylcarbonylpiperazin-1-yl)-6-morpholino-1,3,5-triazine]: the melting point fell in the range of 178 to 181 °C. Besides, the GI50 with B16F10 melanoma cells was 3.93 µM. The molecule further came in with a GI50 with MCF-7 cells of 0.7 µM. Besides, the GI50 with WiDr colon cancer cells is 2.58 µM. In data set [1], this molecule yielded a GI50 of 0.32 µM. In the data set with A549 lung cancer cells, this molecule came in with a GI50 of 1.32 µM.
As for `CCC(=O)N1CCN(c2nc(N3CCOCC3)nc(-n3c(C(F)F)nc4ccccc43)n2)CC1` [Compound 35, 2-(2-Difluoromethylbenzimidazol-1-yl)-4-morpholino-6-(4-propionylpiperazin-1-yl)-1,3,5-triazine], the melting point lay within 198 to 202 °C. The molecule further came in with a GI50 in the data set with B16F10 melanoma cells of 2.84 µM. Further, halving of growth in the data set on MCF-7 cells (GI50) required 0.1 µM. This molecule also showed a GI50 with WiDr colon cancer cells of 2.1 µM. The molecule also returned a GI50 in data set [1] of 0.73 µM. This molecule registered a GI50 in the data set with A549 lung cancer cells of 1.22 µM.
In the case of `O=C(c1ccco1)N1CCN(c2nc(N3CCOCC3)nc(-n3c(C(F)F)nc4ccccc43)n2)CC1` [Compound 31, 2-(2-Difluoromethylbenzimidazol-1-yl)-4-[4-(2-furoyl)piperazin-1-yl]-6-morpholino-1,3,5-triazine], the melting point was in the range of 220 to 222 °C. This molecule also came in with a GI50 in the data set with B16F10 melanoma cells of 1.51 µM. Moreover, it took 0.05 µM to inhibit growth in the data set with MCF-7 cells by half (GI50). Moreover, halving of growth with WiDr colon cancer cells (GI50) required 1.43 µM. This molecule also displayed a GI50 in data set [1] of 0.32 µM. Also, the GI50 in the data set on A549 lung cancer cells worked out at 0.65 µM.
Regarding `COCC(=O)N1CCN(c2nc(N3CCOCC3)nc(-n3c(C(F)F)nc4ccccc43)n2)CC1` [Compound 33, 2-(2-Difluoromethylbenzimidazol-1-yl)-4-(4-methoxylacetylpiperazin-1-yl)-6-morpholino-1,3,5-triazine], the melting point fell in the range of 72 to 75 °C. The GI50 in the data set on B16F10 melanoma cells was found to be 2.91 µM. In the data set on MCF-7 cells, this molecule gave a GI50 of under 0.04 µM. The molecule further gave a GI50 in the data set on WiDr colon cancer cells of 1.46 µM. This molecule also showed a GI50 in data set [1] of 0.51 µM. It took 1.05 µM to inhibit growth in the data set on A549 lung cancer cells by half (GI50).
`OCCN1CCN(c2nc(N3CCOCC3)nc(-n3c(C(F)F)nc4ccccc43)n2)CC1` [Compound 27, 2-(2-Difluoromethylbenzimidazol-1-yl)-4-[4-(2-hydroxyethyl)piperazin-1-yl]-6-morpholino-1,3,5-triazine] yielded a melting point of 174 to 177 °C. Besides, the IC50 in the data set with mouse spleen cells (setting [3]) lay in the range of 0.1 to 10 µM. Besides, in the data set on mouse spleen cells (setting [4]), the IC50 was at most 0.001 µM. The molecule further registered a GI50 with B16F10 melanoma cells of 4.63 µM. In addition, the GI50 in the data set on MCF-7 cells amounted to 1.14 µM. The GI50 in the data set with WiDr colon cancer cells came out at 1.32 µM. In data set [1], this molecule registered a GI50 of 0.31 µM. The IC50 in data set [2] turned out to be 1.56 µM. In the data set on Daudi cells, the IC50 worked out at 0.324 µM. Further, the IC50 in the data set with Jurkat cells was 3.6 µM. Further, the IC50 in the data set on THP-1 cells was determined as 0.73 µM. In the data set with A549 lung cancer cells, the GI50 is 1.12 µM.
In turn, `CC(=O)CN1CCN(c2nc(N3CCOCC3)nc(-n3c(C(F)F)nc4ccccc43)n2)CC1` [Compound 30, 4-(4-Acetonylpiperazin-1-yl)-2-(2-difluoromethylbenzimidazol-1-yl)-6-morpholino-1,3,5-triazine] returned a melting point of 79 to 81 °C. In the data set with B16F10 melanoma cells, this molecule had a GI50 of 3.32 µM. In the data set with MCF-7 cells, this molecule registered a GI50 of 0.41 µM. For the same molecule, halving of growth in the data set on WiDr colon cancer cells (GI50) required 3.74 µM. Moreover, in data set [1], growth was halved (GI50) at 0.77 µM. This molecule also returned a GI50 with A549 lung cancer cells of 1.52 µM.
In turn, `CN(C)C(=O)N1CCN(c2nc(N3CCOCC3)nc(-n3c(C(F)F)nc4ccccc43)n2)CC1` [Compound 32, 2-(2-Difluoromethylbenzimidazol-1-yl)-4-[4-(N,N-dimethylcarbamoyl)piperazin-1-yl]-6-morpholino-1,3,5-triazine] came in with a melting point of 203 to 205 °C. The molecule also came in with a GI50 in the data set with B16F10 melanoma cells of 2.14 µM. In the data set with MCF-7 cells, the concentration for 50% growth inhibition (GI50) is under 0.04 µM. This molecule also displayed a GI50 in the data set with WiDr colon cancer cells of 1.33 µM. The GI50 in data set [1] came out at 0.38 µM. In the data set with A549 lung cancer cells, this molecule gave a GI50 of 0.83 µM.
`O=C1CCN(c2nc(N3CCOCC3)nc(-n3c(C(F)F)nc4ccccc43)n2)CCN1` [Compound 25, 2-(2-Difluoromethylbenzimidazol-1-yl)-4-morpholino-6-(5-oxo-1,4-diazepan-1-yl)-1,3,5-triazine]: the melting point fell in the range of 235 to 237 °C. Moreover, the IC50 in the data set on mouse spleen cells (setting [3]) lay in the range of 0.1 to 10 µM. In addition, in the data set with mouse spleen cells (setting [4]), the IC50 is 0.001 to 0.1 µM. Besides, in the data set on B16F10 melanoma cells, the GI50 turned out to be 3.21 µM. In addition, the GI50 with MCF-7 cells amounted to 0.98 µM. In the data set with WiDr colon cancer cells, this molecule registered a GI50 of 0.92 µM. In [1], the GI50 came to 0.27 µM. This molecule also came in with an IC50 in data set [2] of 0.99 µM. This molecule also returned an IC50 with Daudi cells of 0.19 µM. This molecule also gave an IC50 in the data set with Jurkat cells of 1.59 µM. In the data set with THP-1 cells, this molecule had an IC50 of 0.379 µM. The GI50 in the data set on A549 lung cancer cells turned out to be 0.99 µM.
Take `OCCCN1CCN(c2nc(N3CCOCC3)nc(-n3c(C(F)F)nc4ccccc43)n2)CC1` [Compound 34, 2-(2-Difluoromethylbenzimidazol-1-yl)-4-[4-(3-hydroxypropyl)piperazin-1-yl]-6-morpholino-1,3,5-triazine]: the GI50 amounted to 2.91 µM with B16F10 melanoma cells; 0.14 µM in the data set on MCF-7 cells; 2.07 µM in the data set on WiDr colon cancer cells; 0.55 µM in data set [1]; 1.38 µM in the data set with A549 lung cancer cells.

(Values after patent US8338414B2, “Immunosuppressive agent and anti-tumor agent comprising heterocyclic compound as active ingredient” (Zenyaku Kogyo KabushikiKaisha, priority 2005, dated 2012).)
